Measurements taken from ChEMBL document CHEMBL1146149, “The development of 2-benzimidazole substituted pyrimidine based inhibitors of lymphocyte specific kinase (Lck)” (Bioorg Med Chem Lett, 2006).
In brackets after ≈: the same amount, converted by molar mass.

Experiments:
[1] = molecular target: Tyrosine-protein kinase Lck (Homo sapiens, UniProt P06239)
Description: Inhibition of human recombinant Lck by ProFlour assay

Jurkat = assay: Inhibition of IL2 production in Jurkat E6-1 T cells by ELISA; conditions: Homo sapiens
[2] = Aqueous solubility at pH 7.4; type: physicochemical
[3] = Loss of metabolic stability in Sprague-Dawley rat hepatocytes after 1 hr at 1 uM; type: ADME, cell-based, Hepatocyte; conditions: read-out: Activity
[4] = molecular target: Proto-oncogene tyrosine-protein kinase Src (Homo sapiens, UniProt P12931); assay: Inhibition of human recombinant Src by ProFlour assay
Sequence of Proto-oncogene tyrosine-protein kinase Src (P12931 2-536 limits assumed): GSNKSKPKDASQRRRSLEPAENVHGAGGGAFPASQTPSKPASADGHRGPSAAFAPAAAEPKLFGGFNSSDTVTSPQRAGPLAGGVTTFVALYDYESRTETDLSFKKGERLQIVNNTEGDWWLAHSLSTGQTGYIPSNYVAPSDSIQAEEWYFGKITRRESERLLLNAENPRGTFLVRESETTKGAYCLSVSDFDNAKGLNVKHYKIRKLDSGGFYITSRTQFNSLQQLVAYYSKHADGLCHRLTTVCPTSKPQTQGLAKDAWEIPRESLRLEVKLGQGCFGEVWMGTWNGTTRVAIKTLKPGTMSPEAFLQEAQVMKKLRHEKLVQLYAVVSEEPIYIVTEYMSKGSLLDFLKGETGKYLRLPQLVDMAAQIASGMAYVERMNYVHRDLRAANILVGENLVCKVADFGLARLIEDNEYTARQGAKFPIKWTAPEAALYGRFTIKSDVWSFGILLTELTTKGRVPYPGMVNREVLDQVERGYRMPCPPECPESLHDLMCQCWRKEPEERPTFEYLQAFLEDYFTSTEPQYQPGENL

Sequence of Tyrosine-protein kinase Lck (P06239 whole entry): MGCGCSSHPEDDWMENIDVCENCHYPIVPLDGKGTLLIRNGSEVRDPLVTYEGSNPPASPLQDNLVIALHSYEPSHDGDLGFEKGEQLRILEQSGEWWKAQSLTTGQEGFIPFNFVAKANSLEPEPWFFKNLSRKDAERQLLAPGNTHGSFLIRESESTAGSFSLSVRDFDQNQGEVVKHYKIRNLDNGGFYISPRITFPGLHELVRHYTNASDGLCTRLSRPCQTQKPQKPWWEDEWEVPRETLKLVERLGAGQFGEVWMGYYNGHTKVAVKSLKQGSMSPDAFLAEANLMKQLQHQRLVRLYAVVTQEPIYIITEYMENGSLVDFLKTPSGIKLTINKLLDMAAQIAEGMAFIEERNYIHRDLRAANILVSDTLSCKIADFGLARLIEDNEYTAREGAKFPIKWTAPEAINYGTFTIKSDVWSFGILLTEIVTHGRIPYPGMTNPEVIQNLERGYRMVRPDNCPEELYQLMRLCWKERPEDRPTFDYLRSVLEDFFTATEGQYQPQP

| SMILES | IC50 [1] | IC50 (Jurkat) | solubility [2] | metabolised at 1 h, 1 µM [3] | IC50 [4] |
| --- | --- | --- | --- | --- | --- |
| COc1ccc(C)c(Nc2nccc(-n3cnc4ccccc43)n2)c1 | > 10000 nM | – | – | – | – |
| Cc1ccc(O)cc1Nc1cc(NCCN2CCN(C)CC2)nc(-n2cnc3ccccc32)n1 | – | 2280 nM | 54 µg/mL (≈ 118 µM) | 39% | – |
| Cc1ccc(F)cc1Nc1ccnc(-n2cnc3ccccc32)n1 | > 10000 nM | – | – | – | – |
| Oc1cccc(Nc2nccc(-n3cnc4ccccc43)n2)c1 | > 10000 nM | – | – | – | – |
| Cc1ccc(O)cc1Nc1cc(CC2CCN(C)CC2)nc(-n2cnc3ccccc32)n1 | – | 163 nM | 40 µg/mL (≈ 93.3 µM) | – | – |
| Cc1ccc(O)cc1Nc1cc(OCCN2CCOCC2)nc(-n2cnc3ccccc32)n1 | – | 54 nM | 3 µg/mL (≈ 6.72 µM) | 48% | – |
| Cc1ccc(O)cc1Nc1cc(-n2cnc3ccccc32)ncn1 | > 10000 nM | – | – | – | – |
| Cc1ccc(O)cc1Nc1cc(N2CCN(C)CC2)nc(-n2cnc3ccccc32)n1 | – | – | ≤ 0.1 µg/mL | – | – |
| COc1ccc(C)c(Nc2cc(OCCN3CCOCC3)nc(-n3cnc4ccccc43)n2)c1 | – | 1270 nM | 27 µg/mL (≈ 58.6 µM) | – | – |
| CCN(CC)CCNc1cc(Nc2cc(O)ccc2C)nc(-n2cnc3ccccc32)n1 | – | 549 nM | 127 µg/mL (≈ 294 µM) | 45% | 162 nM |
| Cc1ccc(O)cc1Nc1cc(OCCN2CCN(C)CC2)nc(-n2cnc3ccccc32)n1 | – | 400 nM | 70 µg/mL (≈ 152 µM) | 35% | – |
| Cc1ccc(O)cc1Nc1cc(NCCCN(C)C)nc(-n2cnc3ccccc32)n1 | – | 2200 nM | 55 µg/mL (≈ 132 µM) | 48% | – |
